Like-named read-outs stand apart in the source and are kept apart here.
Experiments:
HasA = HasA (Pseudomonas aeruginosa, UniProt G3XD33); assay: Kd determination by fluorescence quenching of apo-HasAp; conditions: read-out: HasA Kd; apo-HasAp 1 μM, 20 mM sodium phosphate pH 7.4, 25 °C, one-site binding fit
Method: Wild-type, full-length HasAp was prepared from freshly transformed Escherichia coli BL21(DE3) competent cells as previously described in 4 L of M9 media. Cell pellets were resuspended and lysed with an LM-20 microfluidizer at 18,000 psi. Lysate was clarified by centrifugation and applied to a Q-Sepharose column. HasAp was eluted over a gradient from 20 to 600 mM NaCl in 20 mM Tris-HCl (pH 7.5), and desired fractions determined by SDS-PAGE were pooled. Apo-HasAp was further purified on a Butyl Sepharose Fast Flow column equilibrated with 50 mM sodium phosphate buffer with 0.7 M ammonium sulfate (pH 7.0). Holo-HasAp and other proteins eluted within 2–3 bed volumes of 50 mM sodium phosphate containing 0.5 M ammonium sulfate. Apo-HasAp was then eluted with a linear gradient of sodium phosphate buffer (50–20 mM) containing ammonium sulfate (0.5–0 M). Fractions were analyzed again by SDS-PAGE, and the apo-HasAp was pooled, concentrated (Amicon stirred cell with Ultracel 10 kDa filter), and exchanged into 20 mM sodium phosphate buffer.
Binding affinities were determined using a BioTek Synergy H1 microplate reader in a black 96-well plate. Compounds were solvated in H2O in serial dilutions (100–0.39 μM). One micromolar solution of apo-HasAp 20 mM sodium phosphate buffer (pH 7.4, 25 °C) was titrated into the ligand of interest. Emission spectra were recorded (300–500 nm) after excitation at 280 nm. The decrease in maximum emission was plotted against the ligand concentration (accounting for dilution) and fit to one-site binding using GraphPad Prism v10.

[1] = Experimental LogP by reverse-phase HPLC method; format: physicochemical; conditions: extrapolated log kw
Description: LogP was experimentally determined using previously published reverse-phase high-performance liquid chromatography method, and this workflow was adapted using instrumentation described in the previous LC-MS/MS analysis section ([Coutinho et al, 2023]). Briefly, analogs were eluted using isocratic flow with an increasing percentage of organic solvent from 55% to 90% in increments of 5%. The change in the log of the retention factor, log k, was plotted against the fraction of organic solvent. This allowed for extrapolation to the y-intercept, which is when the fraction of organic in the system is zero, or log kw. The same workflow was applied to known compounds with a published logP value to establish a relationship between logP and log kw. This ratio was used to calculate the experimental logP from the log kw of the test compounds. The in silico prediction of logP values was obtained using an online calculator by Molinspiration Cheminformatics (molinspiration.com).

[2] = Caco-2 permeability screening; format: in vitro ADME; conditions: for Papp: Caco-2, ranked by Papp against control drugs, read-out: Permeability ranking; for efflux ratio at 20 µM: human
Method: Caco-2 cells were received from American Type Culture Collection and certified mycoplasma free. Cells were seeded on transwell plates (CoStar, growth area 0.33 cm^2/well, polycarbonate membrane, 0.33 μm pore size) between passage 20 and 27 and then analyzed between 21 and 25 days after wells were seeded to ensure enterocyte-like differentiation. Before assessing permeability, cells were washed once with Hank’s Balanced Salt Solution buffer, pH 7.4, and then incubated at 37 °C for 30 minutes. Transepithelial electrical resistance (TEER) was measured after equilibration before the experiment using an epithelial volt-ohmmeter (EVOM, World Precision Instruments), and cells were used if TEER > 250 Ω × cm^2. Cells were dosed to measure permeability from basolateral and apical sides at a concentration of 20 μM of test compound and 50 μM of Lucifer yellow. Lucifer yellow was used as a “zero permeability” marker to monitor the integrity of cell barrier. Samples were taken at 0 and 60 minutes from the donor side, and samples were taken at 30 and 60 minutes from the receiver side; media was replenished after the 30-minute sample was taken from both chambers. A calibration curve was prepared by serial dilution using the dosing solution in a 1:5 dilution. […] Samples were prepared for LC-MS/MS analysis by taking 100 μL of sample, adding 1 μM internal standard (GaSal-4 or GaSal-5), and crashing with 400 μL of methanol. Samples were centrifuged at 3000 rpm at 4 °C for 30 minutes, 200 μL of supernatant was transferred to a new plate, and 100 μL of water was added to each sample. Samples were vortexed and analyzed by LC-MS/MS as described earlier. […] To preliminarily evaluate organic cation transporter 1 (OCT1) or P-glycoprotein (P-gp)-dependent transport, transport studies were conducted with and without a 1 μM “inhibitor cocktail” alongside GaSal. […] The Papp for basolateral to apical, Papp apical to basolateral, and efflux ratio were reported for each compound. In order to calculate Papp, the concentration in the sampled time point was determined from the calibration curve and then converted to μg based on the volume of the chamber (0.2 mL for apical, 1.0 mL for basolateral). […] The calculation of Papp was determined using eq. […] Data are presented as the average ± SEM for each compound analyzed as n = 3 on 2 different days with 2 different cell line passages, for n = 6 total. GaSal is n = 3 on 3 different cell line passages since this was used as a test compound for the inhibition cocktail experiments.

[3] = Caco-2, 20 μM, 30 and 60 min, average ± SEM, read-out: Papp apical to basolateral
[4] = Caco-2, 20 μM, 30 and 60 min, average ± SEM, read-out: Papp basolateral to apical
[5] = Caco-2, 20 μM, read-out: Efflux ratio B to A/A to B

HasA, sequence (G3XD33 entry or part of it): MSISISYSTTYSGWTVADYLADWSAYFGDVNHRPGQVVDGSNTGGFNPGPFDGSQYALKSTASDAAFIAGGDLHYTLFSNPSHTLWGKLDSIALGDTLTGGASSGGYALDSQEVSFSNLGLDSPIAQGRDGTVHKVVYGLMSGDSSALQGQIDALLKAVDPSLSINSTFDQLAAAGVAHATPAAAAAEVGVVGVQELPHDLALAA

Row | SMILES | Kd (HasA) | logP [1] | Papp A→B [2, 3] | Papp B→A [2, 4] | Papp [2] | efflux ratio at 20 µM [2, 5] | Papp A→B ([2]; Caco-2, with OCT1 inhibitor cocktail (1 μM verapamil and cisplatin), read-out: Papp Apical to Basolateral) | Papp B→A ([2]; Caco-2, with OCT1 inhibitor cocktail (1 μM verapamil and cisplatin), read-out: Papp Basolateral to Apical) | Papp A→B ([2]; Caco-2, with PGP inhibitor cocktail (1 μM cannabidiol and itraconazole), read-out: Papp Apical to Basolateral) | Papp B→A ([2]; Caco-2, with PGP inhibitor cocktail (1 μM cannabidiol and itraconazole), read-out: Papp Basolateral to Apical) | efflux ratio at 20 µM ([2]; Caco-2, with OCT1 inhibitor cocktail, read-out: Efflux Ratio B to A/ A to B) | efflux ratio at 20 µM ([2]; Caco-2, with PGP inhibitor cocktail, read-out: Efflux Ratio B to A/ A to B)
1 | COCCOCCOc1ccc(C=Nc2ccccc2N=Cc2ccc(OCCOCCOC)cc2O)c(O)c1.[Ga+3] [GaSal-5] | 2500 ± 1200 nM | 3.95 | 0.03 ± 0.01 ×10⁻⁶ cm/s | 3.2 ± 0.2 ×10⁻⁶ cm/s | < 1.12 ×10⁻⁶ cm/s | 107 |  |  |  |  |  | 
2 | COCCOc1ccc(/C=N/c2ccccc2/N=C/c2ccc(OCCOC)cc2O)c(O)c1.[Ga+3] [GaSal-13] | 960 ± 140 nM | 3.65 | 0.61 ± 0.01 ×10⁻⁶ cm/s | 0.91 ± 0.1 ×10⁻⁶ cm/s | < 1.12 ×10⁻⁶ cm/s | 1.49 |  |  |  |  |  | 
3 | Oc1ccccc1/C=N/c1ccccc1/N=C/c1ccccc1O.[Ga+3] [GaSal, gallium salophen] | 800 ± 100 nM | 2.58 | 1.2 ± 0.01 ×10⁻⁶ cm/s | 13.6 ± 1.78 ×10⁻⁶ cm/s | 1.12 to 3.51 ×10⁻⁶ cm/s | 11.3 | 1.81 ± 0.03 ×10⁻⁶ cm/s | 14.7 ± 3.26 ×10⁻⁶ cm/s | 1.33 ± 0.03 ×10⁻⁶ cm/s | 16.8 ± 3.86 ×10⁻⁶ cm/s | 8.1 | 12.6
4 | O=C(O)CCOc1ccc(C=Nc2ccccc2N=Cc2ccc(OCCC(=O)O)cc2O)c(O)c1.[Ga+3] [GaSal-4] | 1100 ± 100 nM | 3.33 | < 0.01 ×10⁻⁶ cm/s | 1.44 ± 0.19 ×10⁻⁶ cm/s | < 1.12 ×10⁻⁶ cm/s |  |  |  |  |  |  | 
5 | Oc1cc(OCCN2CCOCC2)ccc1C=Nc1ccccc1N=Cc1ccc(OCCN2CCOCC2)cc1O.[Ga+3] [GaSal-3] | 1500 ± 300 nM | 3.87 | 0.04 ± 0.01 ×10⁻⁶ cm/s | 1.16 ± 0.09 ×10⁻⁶ cm/s | < 1.12 ×10⁻⁶ cm/s | 29 |  |  |  |  |  | 
6 | COCCOc1ccc(/C=N/c2ccccc2N=C(C)c2ccccc2O)c(O)c1.[Ga+3] [GaSal-14] | 2840 ± 120 nM | 3.31 | < 0.01 ×10⁻⁶ cm/s | 1.19 ± 0.4 ×10⁻⁶ cm/s | < 1.12 ×10⁻⁶ cm/s |  |  |  |  |  |  | 
